Reference: PubChem BioAssay (NCI)
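96-well plates; 48 h exposure; 5 concentrations. Endpoints by linear interpolation between flanking doses. Not reached: highest tested concentration assigned. GI50: concentration for 50% inhibition of growth. The concentration for full growth arrest is given as TGI.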

How the values were obtained:
Assay in all cases: NCI anticancer screen, dose series, 48 h
EKVX NSCLC = system: EKVX NSCLC
CCRF-CEM leukemia = system: CCRF-CEM leukemia
PC-3 prostate = system: PC-3 prostate
OVCAR-3 ovarian = system: OVCAR-3 ovarian
SK-MEL-28 melanoma = system: SK-MEL-28 melanoma
IGROV1 ovarian = system: IGROV1 ovarian
ACHN renal = system: ACHN renal
A549 NSCLC = system: A549 NSCLC
HOP-92 NSCLC = system: HOP-92 NSCLC
SK-MEL-2 melanoma = system: SK-MEL-2 melanoma

Compound	TGI (EKVX NSCLC) [µM]	TGI (CCRF-CEM leukemia) [µM]	TGI (PC-3 prostate) [µM]	TGI (OVCAR-3 ovarian) [µM]	TGI (SK-MEL-28 melanoma) [µM]	TGI (IGROV1 ovarian) [µM]	TGI (ACHN renal) [µM]	TGI (A549 NSCLC) [µM]	TGI (HOP-92 NSCLC) [µM]	TGI (SK-MEL-2 melanoma) [µM]	GI50 (CCRF-CEM leukemia) [µM]	GI50 (A549 NSCLC) [µM]
COc1ccc(C[C@H]2COC(=O)[C@@H]2Cc2ccccc2)cc1OC	> 100	> 100	> 100	> 100	> 100	> 100	> 100	> 100				
N#CC(NNC(=O)c1ccccc1O)c1ccc(O)cc1 (centres undefined)		> 100		74	> 100	> 100	> 100	> 100	> 100	78.5		
CC(C)(C)C(=O)O[C@H]1C=C[C@@H](O)[C@@H]2[C@H]1[C@@H]1C=C[C@H]2C1	> 100	> 100		> 100	59.2	> 100	> 100	> 100	> 100	> 100		
Cc1cc(=O)[nH]c(NN2C(Cl)C(=O)C2c2ccco2)n1 (centres undefined)	> 100	45.6		79.4		> 100	> 100	> 100	69.8	99.7		
CCCCNC(=S)Nc1nc(C(=O)NNC(=S)NCc2ccccc2)cs1	> 100		> 100	> 100		> 100	78.5	> 100		> 100		
COc1ccccc1NC(=O)CSC(N)=O	> 100	> 100		> 100	> 100	> 100	> 100	> 100	> 100	61.4		
O=C1CCc2cc3c(cc21)C(C(=O)O)CC3 (centres undefined)	> 100	> 100	> 100		> 100	> 100	> 100	> 100		> 100		
NNc1nnc(-c2ccccc2)nc1Cc1ccccc1	> 100	> 100		> 100	> 100	> 100	> 100	> 100		> 100		
NC(=O)CC[C@H]1C(=O)N=C(N)N1C(=O)OCc1ccccc1	> 100		> 100	> 100	> 100	> 100	> 100			> 100		
CCOC(=O)/C(C1=N[C@H](C(=O)OCC)CS1)=C(\O)c1ccccc1	> 100	> 100		> 100	> 100	> 100	> 100	> 100		> 100		
CN(c1ccc(Cl)cc1)S(=O)(=O)c1ccccc1	> 100	> 100	> 100	> 100	> 100	> 100	> 100	> 100		> 100		
CC(C)C(=O)/C=C/c1ccccc1		67.5		> 100	> 100	> 100	> 100	> 100	> 100	> 100		
C/C(=C\COP(=O)(O)OP(=O)(O)O)CC/C=C(\C)CNc1ccccc1	> 50	10.3	> 50		> 50	> 50	> 50	> 50		> 50		
COc1ccc(Nc2nc(NNC(=O)Cc3ccccc3)nc(NNC(=O)c3ccncc3)n2)cc1	> 10	> 10		> 10	> 10	> 10	> 10	> 10	> 10			
Cc1ccc(Cl)c2c(=O)cc(-c3ccccc3)[nH]c12		> 100			> 100	> 100	> 100	> 100	> 100	> 100		
COc1ccc(C(=O)/C=C/c2ccc(OCCCOc3ccc(/C=C/C(=O)c4ccc(OC)c(OC)c4)cc3)cc2)cc1OC	> 100	> 100	> 100		> 100	> 100	> 100	> 100		> 100		
O=C1NC(=S)N/C1=C\c1ccc(Sc2ccccc2C(=O)O)s1	> 100		> 100	> 100	> 100	> 100	> 100			> 100		
Cc1cccc(=O)c([O-])c1.Cc1cccc(=O)c([O-])c1.Cc1cccc(=O)c([O-])c1.Cc1cccc(=O)c([O-])c1.[Th+4]	> 89.1	49.7		> 22	> 100	> 100	> 100	> 100	> 68.9	97.5	2.52	
O=C(NCCNCCO)N/N=C/c1ccccc1		> 100		> 100	> 100	> 100	> 100	> 100		> 100		
c1ccc2c(c1)ccc1nc(-c3ccc4c(c3)OCO4)c3c(c12)CCC3	> 100	> 100	> 100	> 100	> 100		> 100	> 100		> 100		
COc1ccc2c3c([nH]c2c1)-c1nc2ccccc2c(=O)n1CC3	> 25	> 25	> 25		> 25	> 25	> 25	> 25			> 25	0.754
